In US9708334B2, “Substituted 2,4,5,6-tetrahydropyrrolo[3,4-c]pyrazole and 4,5,6,7-tetrahydro-2H-pyrazolo[4,3-c]pyridine compounds as GlyT1 inhibitors” (DART NEUROSCIENCE (CAYMAN) LTD., priority 2014, dated 2017):

Target: T1, GlyT1 (Homo sapiens, UniProt P48067)
T1 construct: expressed in transfected cells
T1 sequence (P48067 1-706): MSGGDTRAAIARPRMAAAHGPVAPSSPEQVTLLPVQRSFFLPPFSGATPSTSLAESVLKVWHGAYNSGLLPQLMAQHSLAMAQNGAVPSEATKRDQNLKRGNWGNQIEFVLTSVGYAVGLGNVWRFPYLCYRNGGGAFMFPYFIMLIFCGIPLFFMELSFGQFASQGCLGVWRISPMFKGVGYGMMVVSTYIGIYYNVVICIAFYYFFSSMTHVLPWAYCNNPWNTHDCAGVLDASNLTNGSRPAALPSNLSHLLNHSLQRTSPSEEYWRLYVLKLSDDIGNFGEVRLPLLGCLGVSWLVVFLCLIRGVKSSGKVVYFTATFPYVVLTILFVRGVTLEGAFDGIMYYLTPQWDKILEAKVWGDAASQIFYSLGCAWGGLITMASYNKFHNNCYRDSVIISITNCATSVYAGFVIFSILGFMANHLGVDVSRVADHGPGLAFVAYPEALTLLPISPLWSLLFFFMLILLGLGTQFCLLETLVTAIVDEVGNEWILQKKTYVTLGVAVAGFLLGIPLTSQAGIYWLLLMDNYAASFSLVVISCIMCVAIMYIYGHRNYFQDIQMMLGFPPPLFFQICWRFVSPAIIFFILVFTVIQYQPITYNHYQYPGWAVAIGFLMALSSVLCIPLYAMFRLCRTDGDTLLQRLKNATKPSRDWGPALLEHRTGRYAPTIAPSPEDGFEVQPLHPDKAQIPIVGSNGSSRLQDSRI
Assay: Glycine Transporter 1 (GlyT1) uptake assay, scintillation proximity assay of [14C]-glycine uptake
Type: cell-based
Details: SPA, four parameter logistic fit, read-out: GlyT1 (pIC50) (converted)
Procedure, shortened: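 IC50 values derive from four-parameter logistic curves fitted to dose-response data. Uptake of [14C]-glycine measured in scintillation proximity format.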

| SMILES | IC50 |
| --- | --- |
| COc1c(C#N)ccc(C2(F)CCCC2)c1C(=O)N1Cc2cn(-c3ccnc(C)c3)nc2C1 [Example 376, 4-(1-Fluorocyclopentyl)-2-methoxy-3-[2-(2-methylpyridin-4-yl)-2H 4H 5H 6H-pyrrolo[3,4-c]pyrazole-5-carbonyl]benzonitrile] | < 100 nM |
| CC(C)Oc1ccc(C#N)cc1C(=O)N1Cc2cn(CC3CC3)nc2C1 [Example 450, 3-[2-(Cyclopropylmethyl)-2H 4H 5H 6H-pyrrolo[3,4-c]pyrazole-5-carbonyl]-4-(propan-2-yloxy)benzonitrile] | 100 to 1000 nM |
| COc1c(C#N)ccc(C2(F)CCC2)c1C(=O)N1Cc2cn(-c3cccc(C)n3)nc2C1 [Example 20, 4-(1-Fluorocyclobutyl)-2-methoxy-3-[2-(6-methylpyridin-2-yl)-2H 4H 5H 6H-pyrrolo[3,4-c]pyrazole-5-carbonyl]benzonitrile] | 100 to 1000 nM |
| C[C@H](Oc1ccc(C#N)c(Cl)c1C(=O)N1Cc2cn(-c3cncc(F)c3)nc2C1)C(F)(F)F [Example 252, 2-Chloro-3-[2-(5-fluoropyridin-3-yl)-2H 4H 5H 6H-pyrrolo[3,4-c]pyrazole-5-carbonyl]-4-{[(2S)-1 1 1-trifluoropropan-2-yl]oxy}benzonitrile] | < 100 nM |
| CCS(=O)(=O)c1ccc(O[C@@H](C)C(F)(F)F)c(C(=O)N2Cc3cn(C4CCCC4)nc3C2)c1 [Example 417, 2-Cyclopentyl-5-[5-(ethanesulfonyl)-2-{[(2S)-1 1 1-trifluoropropan-2-yl]oxy}benzoyl]-2H 4H 5H 6H-pyrrolo[3,4-c]pyrazole] | < 100 nM |
| C[C@H](Oc1ccc(S(C)(=O)=O)cc1C(=O)N1Cc2cn(-c3ccc(F)cc3F)nc2C1)C(F)(F)F [Example 38, 2-(2 4-Difluorophenyl)-5-(5-methanesulfonyl-2-{[(2S)-1 1 1-trifluoropropan-2-yl]oxy}benzoyl)-2H 4H 5H 6H-pyrrolo[3,4-e]pyrazole] | < 100 nM |
| CCc1cc(-n2cc3c(n2)CN(C(=O)c2cc(S(C)(=O)=O)ccc2-c2cccc(F)c2)C3)ccn1 [Example 143, 2-Ethyl-4-{5-[2-(3-fluorophenyl)-5-methanesulfonylbenzoyl]-2H 4H 5H 6H-pyrrolo[3,4-c]pyrazol-2-yl}pyridine] | < 100 nM |
| CC(C)(C)COc1ccc(C#N)c(Cl)c1C(=O)N1CCc2nn(-c3ccccc3)cc2C1 [Example 503, 2-Chloro-4-(2 2-dimethylpropoxy)-3-{2-phenyl-2H 4H 5H 6H 7H-pyrazolo[4,3-c]pyridine-5-carbonyl}benzonitrile] | 100 to 1000 nM |
| Cc1cc(-n2cc3c(n2)CN(C(=O)c2cc(C#N)ccc2OCC2(C)COC2)C3)ccn1 [Example 538, 4-[(3-Methyloxetan-3-yl)methoxy]-3-[2-(2-methylpyridin-4-yl)-2H 4H 5H 6H-pyrrolo[3,4-c]pyrazole-5-carbonyl]benzonitrile] | 1000 to 10000 nM |
| COc1c(C#N)ccc(C2(F)CCC2)c1C(=O)N1CCc2nn(-c3ccc(F)cc3)cc2C1 [Example 489, 4-(1-Fluorocyclobutyl)-3-[2-(4-fluorophenyl)-2H 4H 5H 6H 7H-pyrazolo[4,3-c]pyridine-5-carbonyl]-2-methoxybenzonitrile] | 100 to 1000 nM |
| COc1c(C#N)ccc(OCC(F)F)c1C(=O)N1Cc2cn(-c3ccccc3)nc2C1 [Example 329, 4-(2 2-Difluoroethoxy)-2-methoxy-3-{2-phenyl-2H 4H 5H 6H-pyrrolo{3,4-c]pyrazole-5-carbonyl}benzonitrile] | < 100 nM |
| COc1c(C#N)ccc(OC(C)CF)c1C(=O)N1Cc2cn(-c3ccc(F)cc3)nc2C1 (centres unmarked) [Example 517, 3-[2-(4-Fluorophenyl)-2H 4H 5H 6H-pyrrolo[3,4-c]pyrazole-5-carbonyl]-4-[(1-fluoropropan-2-yl)oxy]-2-methoxybenzonitrile] | < 100 nM |
| CC(C)Oc1ccc(S(C)(=O)=O)cc1C(=O)N1Cc2cn(-c3cccc(C(F)(F)F)c3)nc2C1 [Example 47, 5-[5-Methanesulfonyl-2-(propan-2-yloxy)benzoyl]-2-[3-(trifluoromethyl)phenyl]-2H 4H 5H 6H-pyrrolo[3,4-c]pyrazole] | < 100 nM |
| CC(Oc1ccc(C#N)cc1C(=O)N1Cc2cn(-c3ccc(F)cn3)nc2C1)C(F)(F)F (centres unmarked) [Example 251] | 100 to 1000 nM |
| COc1c(C#N)ccc(C2(F)CCC2)c1C(=O)N1CCc2nn(-c3ccc(F)cn3)cc2C1 [Example 212, 4-(1-Fluorocyclobutyl)-3-[2-(5-fluoropyridin-2-yl)-2H 4H 5H 6H 7H-pyrazolo[4,3-c]pyridine-5-carbonyl]-2-methoxybenzonitrile] | 100 to 1000 nM |
| COc1c(C#N)ccc(C2(F)CCC2)c1C(=O)N1Cc2cn(-c3ccc(F)cc3)nc2C1 [Example 26, 4-(1-Fluorocyclobutyl)-3-[2-(4-fluorophenyl)-2H 4H 5H 6H-pyrrolo[3,4-c]pyrazole-5-carbonyl]-2-methoxybenzonitrile] | 100 to 1000 nM |
| C[C@H](Oc1ccc(C#N)cc1C(=O)N1Cc2cn(C3CCCC3)nc2C1)C(F)(F)F [Example 389, 3-{2-Cyclopentyl-2H 4H 5H 6H-pyrrolo[3,4-c]pyrazole-5-carbonyl}-4-{[(2S)-1 1 1-trifluoropropan-2-yl]oxy}benzonitrile] | 100 to 1000 nM |
| Cc1c(F)ccc(-n2cc3c(n2)CN(C(=O)c2cc(S(C)(=O)=O)ccc2OCC(C)C)C3)c1F [Example 67, 2-(2 4-Difluoro-3-methylphenyl)-5-[5-methanesulfonyl-2-(2-methylpropoxy)benzoyl]-2H 4H 5H 6H-pyrrolo[3,4-c]pyrazole] | < 100 nM |
| Cc1cc(-n2cc3c(n2)CN(C(=O)c2cc(C#N)ccc2OCC(C)(C)C)C3)ccn1 [Example 3, 3-(2-(2-Methylpyridin-4-yl)-2,4,5,6-tetrahydropyrrolo[3,4-c]pyrazole-5-carbonyl)-4-(neopentyloxy)benzonitrile] | < 100 nM |
| COc1c(C#N)ccc(OCC(F)(F)F)c1C(=O)N1CCc2nn(-c3ccncc3)cc2C1 [Example 156, 2-Methoxy-3-[2-(pyridin-4-yl)-2H 4H 5H 6H 7H-pyrazolo[4,3-c]pyridine-5-carbonyl]-4-(2 2 2-trifluoroethoxy)benzonitrile] | < 100 nM |
| COc1c(C#N)ccc(OC(C)C(F)(F)F)c1C(=O)N1CCc2c(cnn2C2CCCCC2)C1 (centres unmarked) [Example 215, 3-{1-Cyclohexyl-1H 4H 5H 6H 7H-pyrazolo[4,3-c]pyridine-5-carbonyl}-2-methoxy-4-[(1 1 1-trifluoropropan-2-yl)oxy]benzonitrile] | < 100 nM |
| COc1c(C#N)ccc(O[C@@H](C)C(F)(F)F)c1C(=O)N1CCc2nn(-c3ccncc3F)cc2C1 [Example 245, 3-[2-(3-Fluoropyridin-4-yl)-2H 4H 5H 6H 7H-pyrazolo[4,3-c]pyridine-5-carbonyl]-2-methoxy-4-{[(2S)-1 1 1-trifluoropropan-2-yl]oxy}benzonitrile] | < 100 nM |
| CC(C)Oc1ccc(C#N)cc1C(=O)N1Cc2cn(-c3ccn4ccnc4c3)nc2C1 [Example 424, 3-(2-{Imidazo[1 2-a]pyridin-7-yl}-2H 4H 5H 6H-pyrrolo[3,4-c]pyrazole-5-carbonyl)-4-(propan-2-yloxy)benzonitrile] | 1000 to 10000 nM |
| C[C@H](Oc1ccc(S(C)(=O)=O)cc1C(=O)N1Cc2cn(C3CCC(F)(F)CC3)nc2C1)C(F)(F)F [Example 471, 2-(4 4-Difluorocyclohexyl)-5-(5-methanesulfonyl-2-{[(2S)-1 1 1-trifluoropropan-2-yl]oxy}benzoyl)-2H 4H 5H 6H-pyrrolo[3,4-c]pyrazole] | < 100 nM |
| CC(Oc1ccc(C#N)c(Cl)c1C(=O)N1CCc2nn(C)cc2C1)C(F)(F)F (centres unmarked) [Example 203, 2-Chloro-3-{2-methyl-2H 4H 5H 6H 7H-pyrazolo[4,3-c]pyridine-5-carbonyl}-4-[(1 1 1-trifluoropropan-2-yl)oxy]benzonitrile] | 1000 to 10000 nM |
| COc1cc(-n2ncc3c2CN(C(=O)c2cc(C#N)ccc2O[C@@H](C)C(F)(F)F)C3)ccn1 [Example 365, 3-[1-(2-Methoxypyridin-4-yl)-1H 4H 5H 6H-pyrrolo[3,4-c]pyrazole-5-carbonyl]-4-{[(2S)-1 1 1-trifluoropropan-2-yl]oxy}benzonitrile] | 1000 to 10000 nM |
| Cc1cc(-n2cc3c(n2)CCN(C(=O)c2c(OC(C)C(F)(F)F)ccc(C#N)c2Cl)C3)ccn1 (centres unmarked) [Example 226, 2-Chloro-3-[2-(2-methylpyridin-4-yl)-2H 4H 5H 6H 7H-pyrazolo[4,3-c]pyridine-5-carbonyl]-4-[(1 1 1-trifluoropropan-2-yl)oxy]benzonitrile] | < 100 nM |
| CC(C)COc1ccc(S(C)(=O)=O)cc1C(=O)N1Cc2cn(-c3cccc(C(F)(F)F)c3)nc2C1 [Example 53, 5-[5-Methanesulfonyl-2-(2-methylpropoxy)benzoyl]-2-[3-(trifluoromethyl)phenyl]-2H 4H 5H 6H-pyrrolo[3,4-c]pyrazole] | < 100 nM |
| N#Cc1ccc(-c2cccc(F)c2)c(C(=O)N2Cc3cn(C4CCOCC4)nc3C2)c1 [Example 557, 4-(3-Fluorophenyl)-3-[2-(oxan-4-yl)-2H 4H 5H 6H-pyrrolo[3,4-c]pyrazole-5-carbonyl]benzonitrile] | 100 to 1000 nM |
